This is an account of results in ChEMBL document CHEMBL5727383, “[1,2,3]triazolo[4,5-D]pyrimidine derivatives” (2019).

This assay deals with Cannabinoid receptor 2 (Homo sapiens, UniProt P34972). Description: Radioligand Binding Assay: The affinity of the compounds of the invention for cannabinoid receptors was determined using recommended amounts of membrane preparations (PerkinElmer) of human embryonic kidney (HEK) cells expressing the human CNR1 or CNR2 receptors in conjunction with 1.5 or 2.6 nM [3H]-CP-55,940 (Perkin Elmer) as radioligand, respectively. Binding was performed in binding buffer (50 mM Tris, 5 mM MgCl2, 2.5 mM EDTA, and 0.5% (wt/vol) fatty acid free BSA, pH 7.4 for CB1 receptor and 50 mM Tris, 5 mM MgCl2, 2.5 mM EGTA, and 0.1% (wt/vol) fatty acid free BSA, pH 7.4 for CB2 receptor) in a total volume of 0.2 mL for 1 h at 30° C. shaking. The reaction was terminated by rapid filtration through microfiltration plates coated with 0.5% polyethylenimine (UniFilter GF/B filter plate; Packard). Bound radioactivity was analyzed for Ki using nonlinear regression analysis (Activity Base, ID Business Solution, Limited), with the Kd values for [3H]CP55,940 determined from saturation experiments.
Cannabinoid receptor 2, sequence (P34972 whole entry): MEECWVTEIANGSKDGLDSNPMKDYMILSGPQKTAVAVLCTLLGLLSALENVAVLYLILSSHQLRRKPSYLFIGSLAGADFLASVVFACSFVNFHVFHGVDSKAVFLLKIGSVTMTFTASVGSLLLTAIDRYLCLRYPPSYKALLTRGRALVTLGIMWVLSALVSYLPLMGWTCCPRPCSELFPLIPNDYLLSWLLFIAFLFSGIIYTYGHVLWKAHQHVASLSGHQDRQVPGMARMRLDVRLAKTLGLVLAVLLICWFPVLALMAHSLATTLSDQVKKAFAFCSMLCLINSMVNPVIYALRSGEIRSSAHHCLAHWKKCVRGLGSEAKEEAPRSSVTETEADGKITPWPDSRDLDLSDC

pKi: −log10 of the molar value.

As for `CC(C)(C)c1nc(N2CCC(F)(F)C2)c2nn(Cc3ccc(C4(C(F)(F)F)N=N4)cc3Cl)nc2n1`, the negative-log Ki (pKi) is 5.63.

One may read the pKi as −log10 of the Ki, conventionally taken in molar units.
